Like-named read-outs stand apart in the source and are kept apart here.
Experiments:
[1] = injection into the patient; cited from earlier work
HT-29 tumor = experiment: Ex vivo tumor-to-background ratio in excised HT-29 tumors; parameters: species or system mice; details: 1 nmol/mouse, samples collected 24 hours after administration; tumor vs hind limb muscle
Method: (§1) The ex vivo biodistribution of the representative compounds 1, 2 and 3 and of the reference compound HF-1 (at 1 nmol/mouse) was evaluated in HT-29 excised tumors and tissues at the end of the in vivo OI sessions 24 hours post intravenous administration. At the end of the in vivo experiment, animals were euthanized by overdose of gaseous anesthesia followed by cervical dislocation. Tumor tissue, muscle, and other organs of interest were removed for ex vivo fluorescent signal measurements. The fluorescence signal intensity was measured by the IVIS Spectrum system. Regions of interest (ROIs) were drawn around each organ and tumor using the Living Image Software (PerkinElmer) and evaluating signal intensity in the tissues (expressed as Average Radiant Efficiency). The ratio between the fluorescence signal in the organs and tumor was then calculated to assess the contrast to hind limb muscle (representing the background).

[2] = Optical characterization (excitation/emission maxima, molar extinction coefficient); assay type: physicochemical
Method: A dual-beam UV-VIS spectrophotometer (Lambda 40, Perkin Elmer) was used to determine the absorbance (Abs) of the compounds of the invention. Emission/excitation (Em/Ex) spectra were carried out on a spectrofluorometer (FluoroLog-3 1IHR-320, Horiba Jobin Yvon) equipped with an F-3018 integrating sphere accessory. The measurements were performed using an excitation wavelength at maximum absorbance of different dyes, and the sample was excited with a 450W Xenon Light Source. Detection was performed by photomultiplier tubes (PMT-NIR) cooled detector or by TBX-04 detector. Dye solutions were carefully prepared to have an absorbance lower than 0.1 (optical densities) to minimize re-absorption phenomena.
The compounds of the invention were characterized in terms of their optical properties in vitro in aqueous medium (i.e., water/PBS pH 7.4) and in a clinical chemistry control serum (Seronorm, Sero S A), mimicking the chemical composition and optical properties of human serum. All solutions were freshly prepared. In particular, the compounds of the invention are characterized by absorption maxima comprised in the range from about 750 nm to 780 nm.
The excitation and emission maxima in PBS and Seronorm and the molar extinction coefficient (E) in water of representative compounds of formula (I) are shown in Table I in comparison with the known CA-IX targeting fluorescent probe named Hypoxyfluor-1 (HF-1, for instance disclosed in Bioconjugate Chem 2018, 29, 3320-3331). […] Moreover, the extinction coefficients were higher than […] for all compounds.

[3] = as above; assay type: physicochemical; details: in water
[4] = molecular target: T1, recombinant bovine CAII enzyme (bCAII) (Bos taurus, UniProt P00921); experiment: Dansylamide (DNSA) displacement fluorescence assay on carbonic anhydrase catalytic site; assay type: binding
T1 construct: purchased Sigma-Aldrich; host or cells: E. coli
T1 sequence (P00921 whole entry): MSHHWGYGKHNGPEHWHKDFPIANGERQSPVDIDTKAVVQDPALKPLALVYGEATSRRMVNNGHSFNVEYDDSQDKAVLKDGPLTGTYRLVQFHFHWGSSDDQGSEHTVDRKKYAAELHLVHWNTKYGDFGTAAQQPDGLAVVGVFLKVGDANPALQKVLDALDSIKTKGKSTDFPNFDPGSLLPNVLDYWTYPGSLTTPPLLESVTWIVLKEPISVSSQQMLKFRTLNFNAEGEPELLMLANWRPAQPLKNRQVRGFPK
Method: The binding affinity of the compounds of formula (I) to Carbonic Anhydrase (CA) catalytic site was determined to assess the targeting efficacy of the molecular vectors, even after labeling the targeting ligand with the fluorescent portion of the probe.
Such enzyme in fact is highly available and has a catalytic site with high degree of homology in different carbonic anhydrase isoforms (Aggarwal M. et al., J Enzyme Inhib Med Chem 2013; 28(2): 267-277).
The dissociation constant (Ko) of compounds of formula (I) for bCAII was estimated by performing a fluorescence-based assay, exploiting the drop of fluorescence deriving from the displacement of carbonic anhydrase-bound dansylamide (DNSA) in presence of competitors and was adapted for application in 96-well plates from Wang S C et al., Biochem Mol Biol Educ. 2006, 34(5): 364-368. […] In both cases DNSA is excited at about 320 nm. Thus, excitation of carbonic anhydrase aromatic residues (Trp) at 285 nm generates an emission at 340 nm, that is quenched in presence of bound DNSA. The quenching occurs by FRET (fluorescence resonance energy transfer) to bound DNSA, which is in turn excited, emitting at 460 nm.
Molecules that bind to CA in the same binding site of DNSA, such as sulfonamides or derivatives, competitively displace DNSA from CA. The degree of displacement is function of the affinity of competitors and can be followed through the drop of fluorescence at 460 nm.
In detail, 5-(Dimethylamino)-1-naphthalenesulfonamide (dansylamide, DNSA, Sigma-Aldrich 218898) was reconstituted in 20 mM Tris pH 8, aliquoted and stored at −20° C.; bCAII (recombinant, expressed in E. Coli, Sigma-Aldrich) was divided in aliquots and stored at −20° C.
DNSA fluorescence emission at 462 nm from each well was recorded after excitation at 285 nm (Trp wavelength of excitation) and consequent selective excitation of DNSA bound to bCAII by FRET. Fractional saturation of bCAII was experimentally determined through normalization of fluorescence data between 1 (no compounds) and 0 (maximal DNSA displacement by presence of binding competitors), according to the equation below: […]
where r is fractional saturation, FLobs is the recorded fluorescence intensity, FLmin is the fluorescence intensity recorded at maximal concentration of compounds, and FLmax is fluorescence recorded in absence of compounds.
The KD of CA-binding compounds (=KDcomp) was then derived by mathematical fitting of experimental data according to the equation: […]
Mathematical fitting was performed using Microsoft Excel Solver.
All compounds were tested in triplicate.

CA-IX = molecular target: T2, CA-IX (Homo sapiens, UniProt Q16790); experiment: Cellular binding assessment by flow cytometry on CA-IX expressing HT-29 cells; details: 1 hour 30 min on ice, read-out: CA-IX receptor affinity (KD, to HT-29 cells)
T2 construct: host or cells: HT-29 human colorectal adenocarcinoma cells
Method: Human colon adenocarcinoma HT-29 cells (ATCC) used for the cellular binding experiments were cultured in McCoy's 5A medium (Sigma-Aldrich), supplemented with 10% HyClone Fetal Clone III (Euroclone), 2 mM L-glutamine (Sigma-Aldrich), 100 IU/mL penicillin, 0.1 mg/mL streptomycin, 0.25 μg/mL amphotericin B (Antibiotic-Antimycotic solution, Life Technologies) and cells were grown at 37° C. in humidified atmosphere enriched with 5% CO2. DPBS without MgCl2 and CaCl2 (Sigma-Aldrich) was used for cell rinsing.
Indeed, by using the anti-human CA-IX antibody MAB2188 (R&D Systems) and the DAKO […], according to the instruction of the datasheet, HT-29 cells were estimated to express about 150,000 CA-IX molecules per cell. Thus, HT-29 cells were used to measure the binding of all compounds to CA-IX, expressed in its physiological environment at the cell-surface. Briefly, HT-29 cells were detached with StemPro® Accutase® Cell Dissociation Reagent (Life Technologies), collected in DPBS and counted. At least 2·10^5 cells were placed in 1.5 mL tubes on ice and resuspended in 50-100 μL of cold FACS buffer (eBioscience™ Flow Cytometry Staining Buffer, Invitrogen) containing scalar concentrations of compounds (compound 1: range 1-5 μM; compounds 2 and 3: range 0-20 μM). After incubation (1 hour and 30 min on ice in the dark), cells were rinsed 3 times in 300 μL of cold FACS buffer by centrifugation (5 min, 4° C., 350 RCF), discarding the supernatant. Cell pellets were then resuspended in 200 μL of cold FACS buffer (or in a suitable volume in order to obtain no more than 1000 recorded events per μL during FACS analysis) and analyzed with the flow cytometer Accuri™ C6 (BD Biosciences). The mean cell-associated fluorescence was plotted against concentration and the dissociation constant at equilibrium (Ko) was inferred by mathematical fitting with GraphPad Prism v.9 software, according to the following equation: […]
where Bmax is the maximum specific binding in the same units as Y. KD is the equilibrium dissociation constant, in the same units as X. NS is the slope of nonspecific binding in Y units divided by X units. Background is the amount of nonspecific binding with no added Compound.
All compounds were analyzed in at least three independent experiments. The calculated KD are summarized in Table III and compared with the one obtained for HF-1.

[5] = Ex vivo biodistribution, organ-to-muscle ratio; assay type: in vivo, mice; details: 1 nmol/mouse, 24 hours after administration
Method: as §1
Moreover, FIG. 6 (b) and Table VIII show the accumulation and distribution of the fluorescent probes in the dissected organs, reporting the ex vivo values of organs-to-muscle ratio from samples collected at 24 hours after the administration of representative compounds 1, 2 and 3 and of the reference compound HF-1 (1 nmol/mouse).

## ^124I-cG250: chimeric version of monoclonal antibody G250 labelled with the radionuclide 124I
[1]
  time after injection to reach tumor/blood ratios suitable for imaging: 2 to 7 days

## CC1(C)C(/C=C/C2=C(Oc3ccc(CCC(=O)NCCCCCCCC(=O)Nc4nnc(S(N)(=O)=O)s4)cc3)C(=C/C=C3/N(CCCCS(=O)(=O)O)c4ccc(S(=O)(=O)O)cc4C3(C)C)/CCC2)=[N+](CCCCS(=O)(=O)[O-])c2ccc(S(=O)(=O)O)cc21 [HF-1, reference compound]
HT-29 tumor
  ex vivo TBR ± SD, HT-29 tumor: 3.1 ± 0.3
[2]; PBS pH 7.4
  Max Em: 798 nm
  Max Ex: 772 nm
[2]; Seronorm
  Max Em: 808 nm
  Max Ex: 792 nm
[3]
  molar extinction coefficient (ε): 255000 M⁻¹ cm⁻¹
[4]; 0.25 μM bCAII, 5 μM DNSA, 20 mM Tris pH 8, triplicate, read-out: CAII receptor affinity (KD)
  Kd: 9.5 ± 1 nM
CA-IX
  Kd: 115 ± 8 nM
[5]
  Organ-to-muscle ratio, intestine: 2.2 ± 1.3
  Organ-to-muscle ratio, kidney: 2.4 ± 0.3
  Organ-to-muscle ratio, liver: 5.7 ± 0.2
  Organ-to-muscle ratio, skin: 1.4 ± 0.0
  Organ-to-muscle ratio, spleen: 1.4 ± 0.3
  Organ-to-muscle ratio, stomach: 4.0 ± 1.7

## CN(C)c1cccc2c(S(N)(=O)=O)cccc12 [DNSA, 5-(Dimethylamino)-1-naphthalenesulfonamide, reference compound]
[4]; previously experimentally determined, read-out: dissociation constant at equilibrium of DNSA (KDDNSA)
  Kd: 170 nM

Source: patent US20250352675A1, “CA-IX TARGETING FLUORESCENT PROBES” (BRACCO IMAGING S.P.A., priority 2022, published 2025)
